The values below are quoted from earlier work in US6669955B2, “Combination dosage form containing individual dosage units of a cholesterol-lowering agent, an inhibitor of the renin-angiotensin system, and aspirin” (Longwood Pharmaceutical Research, Inc., priority 2001, dated 2003).

In data set [1] the test system is patients at risk for cardiovascular events. The conditions noted are these: daily administration of low doses (approximately 80 mg); cited from earlier work.
Another data set relates to blood pressure. The conditions noted are these: relative to angiotensin II; cited from earlier work.

Turning to `CC(=O)Oc1ccccc1C(=O)O` [aspirin, acetylsalicylic acid], the “reduction of second heart attacks, strokes, and cardiovascular deaths” value in data set [1] is on record as “at least 25%”.

On to “angiotensin I (DRVYIHPFHL; Angiotensin-1; UniProt P01019 25-34, looked up) [decapeptide formed by renin acting on angiotensinogen]”, for which the “hypertensive activity, as share of that of angiotensin II” value in the data set with blood pressure was “about 1%”.
